{
  "source": "patent US20100160454A1",
  "about": "“ANTIMICROBIAL AGENTS, COMPOSITIONS AND PRODUCTS CONTAINING THE SAME, AND METHODS OF USING THE COMPOSITIONS AND PRODUCTS” (Eastman Chemical Company, priority 2008, published 2010)",
  "assay_in_all_cases": "Microbiological challenge testing in BPW broth, graded subculture counts",
  "format_in_all_cases": "cell-based",
  "key": {"[1]": {"test_system": "Candida albicans Wild type", "conditions": "C. albicans", "procedure,_shortened": "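Wild-type C. albicans grown in TSB with 1% dextrose at 22 °C, then adjusted by turbidity and hemocytometer to a 10^8 CFU/mL challenge confirmed on SABD plates. Challenge added to BPW broth containing 1% dextrose, giving 10^5 to 10^6 CFU/mL at time zero; controls in triplicate. Counts by serial dilution and spread-plating after at least 48 h incubation.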"}, "[2]": {"test_system": "Bacillus subtilis Wild type", "procedure,_shortened": "(§1)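 Bacteria were grown in TSB with 1% dextrose at 35 °C ± 2 °C for at least 96 h, then added to BPW containing 1% dextrose plus test material to give 10^5 to 10^6 CFU/mL at time zero. Broth-alone controls were run in triplicate. Counts were made by spread plating on PCA.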"}, "[3]": {"test_system": "Pseudomonas aeruginosa Wild type", "conditions": "P. aeruginosa", "procedure,_shortened": "as §1"}, "[4]": {"test_system": "Staphylococcus epidermidis ATCC 12228", "procedure,_shortened": "as §1"}, "[5]": {"test_system": "Proteus vulgaris Wild type", "procedure,_shortened": "as §1"}},
  "data": [
    {"smiles": "CC1(C)C(O)C(C)(C)C1O", "note": "(stereo not drawn) [TMCBD, 2,2,4,4-tetramethyl-1,3-cyclobutanediol]", "values": [
      {"measurement": "Grade", "setting": "[1]; 0.5% (wt/vol), 3 day", "result": "4 (1000 to 10,000 colonies countable (thus 10,000 CFU/mL to 100,000 CFU/mL))"},
      {"measurement": "Grade", "setting": "[1]; 0.5% (wt/vol), 14 day", "result": "4 (1000 to 10,000 colonies countable (thus 10,000 CFU/mL to 100,000 CFU/mL))"},
      {"measurement": "Grade", "setting": "[1]; 0.5% (wt/vol), 30 day", "result": "4 (1000 to 10,000 colonies countable (thus 10,000 CFU/mL to 100,000 CFU/mL))"},
      {"measurement": "Grade", "setting": "[1]; 1.25% (wt/vol), 3 day", "result": "3 (100 to 1000 colonies (thus 1000 to 10,000 CFU/mL))"},
      {"measurement": "Grade", "setting": "[1]; 1.25% (wt/vol), 14 day", "result": "4 (1000 to 10,000 colonies countable (thus 10,000 CFU/mL to 100,000 CFU/mL))"},
      {"measurement": "Grade", "setting": "[1]; 1.25% (wt/vol), 30 day", "result": "4 (1000 to 10,000 colonies countable (thus 10,000 CFU/mL to 100,000 CFU/mL))"},
      {"measurement": "Grade", "setting": "[1]; 2.5% (wt/vol), 3 day", "result": "3 (100 to 1000 colonies (thus 1000 to 10,000 CFU/mL))"},
      {"measurement": "Grade", "setting": "[1]; 2.5% (wt/vol), 14 day", "result": "2 (52 to 100 colonies counted (thus 520 to 1000 CFU/mL))"},
      {"measurement": "Grade", "setting": "[1]; 2.5% (wt/vol), 30 day", "result": "2 (52 to 100 colonies counted (thus 520 to 1000 CFU/mL))"},
      {"measurement": "Grade", "setting": "[1]; 5.0% (wt/vol), 3 day", "result": "2 (52 to 100 colonies counted (thus 520 to 1000 CFU/mL))"},
      {"measurement": "Grade", "setting": "[1]; 5.0% (wt/vol), 14 day", "result": 0},
      {"measurement": "Grade", "setting": "[1]; 5.0% (wt/vol), 30 day", "result": 0},
      {"measurement": "B. subtillis growth grade, 3 day", "setting": "[2]; 0.5% weight/volume", "result": "4 (1000 to 10,000 colonies countable (thus 10,000 CFU/mL to 100,000 CFU/mL))"},
      {"measurement": "B. subtillis growth grade, 14 day", "setting": "[2]; 0.5% weight/volume", "result": "4 (1000 to 10,000 colonies countable (thus 10,000 CFU/mL to 100,000 CFU/mL))"},
      {"measurement": "B. subtillis growth grade, 30 day", "setting": "[2]; 0.5% weight/volume", "result": "4 (1000 to 10,000 colonies countable (thus 10,000 CFU/mL to 100,000 CFU/mL))"},
      {"measurement": "B. subtillis growth grade, 3 day", "setting": "[2]; 1.25% weight/volume", "result": "4 (1000 to 10,000 colonies countable (thus 10,000 CFU/mL to 100,000 CFU/mL))"},
      {"measurement": "B. subtillis growth grade, 14 day", "setting": "[2]; 1.25% weight/volume", "result": "4 (1000 to 10,000 colonies countable (thus 10,000 CFU/mL to 100,000 CFU/mL))"},
      {"measurement": "B. subtillis growth grade, 30 day", "setting": "[2]; 1.25% weight/volume", "result": "4 (1000 to 10,000 colonies countable (thus 10,000 CFU/mL to 100,000 CFU/mL))"},
      {"measurement": "B. subtillis growth grade, 3 day", "setting": "[2]; 2.5% weight/volume", "result": "4 (1000 to 10,000 colonies countable (thus 10,000 CFU/mL to 100,000 CFU/mL))"},
      {"measurement": "B. subtillis growth grade, 14 day", "setting": "[2]; 2.5% weight/volume", "result": "4 (1000 to 10,000 colonies countable (thus 10,000 CFU/mL to 100,000 CFU/mL))"},
      {"measurement": "B. subtillis growth grade, 30 day", "setting": "[2]; 2.5% weight/volume", "result": "4 (1000 to 10,000 colonies countable (thus 10,000 CFU/mL to 100,000 CFU/mL))"},
      {"measurement": "B. subtillis growth grade, 3 day", "setting": "[2]; 5.0% weight/volume", "result": "4 (1000 to 10,000 colonies countable (thus 10,000 CFU/mL to 100,000 CFU/mL))"},
      {"measurement": "B. subtillis growth grade, 14 day", "setting": "[2]; 5.0% weight/volume", "result": "2 (52 to 100 colonies counted (thus 520 to 1000 CFU/mL))"},
      {"measurement": "B. subtillis growth grade, 30 day", "setting": "[2]; 5.0% weight/volume", "result": 0},
      {"measurement": "Grade", "setting": "[3]; 0.5% (wt/vol), 3 day", "result": "5 (More than 10,000 colonies estimated (thus more than 100,000 CFU/mL))"},
      {"measurement": "Grade", "setting": "[3]; 0.5% (wt/vol), 13 day", "result": "5 (More than 10,000 colonies estimated (thus more than 100,000 CFU/mL))"},
      {"measurement": "Grade", "setting": "[3]; 0.5% (wt/vol), 30 day", "result": "5 (More than 10,000 colonies estimated (thus more than 100,000 CFU/mL))"},
      {"measurement": "Grade", "setting": "[3]; 1.25% (wt/vol), 3 day", "result": "4 (1000 to 10,000 colonies countable (thus 10,000 CFU/mL to 100,000 CFU/mL))"},
      {"measurement": "Grade", "setting": "[3]; 1.25% (wt/vol), 13 day", "result": "4 (1000 to 10,000 colonies countable (thus 10,000 CFU/mL to 100,000 CFU/mL))"},
      {"measurement": "Grade", "setting": "[3]; 1.25% (wt/vol), 30 day", "result": "4 (1000 to 10,000 colonies countable (thus 10,000 CFU/mL to 100,000 CFU/mL))"},
      {"measurement": "Grade", "setting": "[3]; 2.5% (wt/vol), 3 day", "result": "4 (1000 to 10,000 colonies countable (thus 10,000 CFU/mL to 100,000 CFU/mL))"},
      {"measurement": "Grade", "setting": "[3]; 2.5% (wt/vol), 13 day", "result": "3 (100 to 1000 colonies (thus 1000 to 10,000 CFU/mL))"},
      {"measurement": "Grade", "setting": "[3]; 2.5% (wt/vol), 30 day", "result": "4 (1000 to 10,000 colonies countable (thus 10,000 CFU/mL to 100,000 CFU/mL))"},
      {"measurement": "Grade", "setting": "[3]; 5.0% (wt/vol), 3 day", "result": "3 (100 to 1000 colonies (thus 1000 to 10,000 CFU/mL))"},
      {"measurement": "Grade", "setting": "[3]; 5.0% (wt/vol), 13 day", "result": "1 (0 to 51 colonies counted (thus 10 to 510 CFU/mL based on 0.1-mL sample))"},
      {"measurement": "Grade", "setting": "[3]; 5.0% (wt/vol), 30 day", "result": 0},
      {"measurement": "S. epidermidis growth grade, 3 day", "setting": "[4]; 0.5% weight/volume", "result": "4 (1000 to 10,000 colonies countable (thus 10,000 CFU/mL to 100,000 CFU/mL))"},
      {"measurement": "S. epidermidis growth grade, 13 day", "setting": "[4]; 0.5% weight/volume", "result": "4 (1000 to 10,000 colonies countable (thus 10,000 CFU/mL to 100,000 CFU/mL))"},
      {"measurement": "S. epidermidis growth grade, 30 day", "setting": "[4]; 0.5% weight/volume", "result": "4 (1000 to 10,000 colonies countable (thus 10,000 CFU/mL to 100,000 CFU/mL))"},
      {"measurement": "S. epidermidis growth grade, 3 day", "setting": "[4]; 1.25% weight/volume", "result": "2 (52 to 100 colonies counted (thus 520 to 1000 CFU/mL))"},
      {"measurement": "S. epidermidis growth grade, 13 day", "setting": "[4]; 1.25% weight/volume", "result": "3 (100 to 1000 colonies (thus 1000 to 10,000 CFU/mL))"},
      {"measurement": "S. epidermidis growth grade, 30 day", "setting": "[4]; 1.25% weight/volume", "result": "4 (1000 to 10,000 colonies countable (thus 10,000 CFU/mL to 100,000 CFU/mL))"},
      {"measurement": "S. epidermidis growth grade, 3 day", "setting": "[4]; 2.5% weight/volume", "result": "2 (52 to 100 colonies counted (thus 520 to 1000 CFU/mL))"},
      {"measurement": "S. epidermidis growth grade, 13 day", "setting": "[4]; 2.5% weight/volume", "result": "2 (52 to 100 colonies counted (thus 520 to 1000 CFU/mL))"},
      {"measurement": "S. epidermidis growth grade, 30 day", "setting": "[4]; 2.5% weight/volume", "result": "2 (52 to 100 colonies counted (thus 520 to 1000 CFU/mL))"},
      {"measurement": "S. epidermidis growth grade, 3 day", "setting": "[4]; 5.0% weight/volume", "result": "1 (0 to 51 colonies counted (thus 10 to 510 CFU/mL based on 0.1-mL sample))"},
      {"measurement": "S. epidermidis growth grade, 13 day", "setting": "[4]; 5.0% weight/volume", "result": 0},
      {"measurement": "S. epidermidis growth grade, 30 day", "setting": "[4]; 5.0% weight/volume", "result": 0},
      {"measurement": "P. vulgaris growth grade, 3 day", "setting": "[5]; 0.5% weight/volume", "result": "4 (1000 to 10,000 colonies countable (thus 10,000 CFU/mL to 100,000 CFU/mL))"},
      {"measurement": "P. vulgaris growth grade, 13 day", "setting": "[5]; 0.5% weight/volume", "result": "4 (1000 to 10,000 colonies countable (thus 10,000 CFU/mL to 100,000 CFU/mL))"},
      {"measurement": "P. vulgaris growth grade, 30 day", "setting": "[5]; 0.5% weight/volume", "result": "4 (1000 to 10,000 colonies countable (thus 10,000 CFU/mL to 100,000 CFU/mL))"},
      {"measurement": "P. vulgaris growth grade, 3 day", "setting": "[5]; 1.25% weight/volume", "result": "3 (100 to 1000 colonies (thus 1000 to 10,000 CFU/mL))"},
      {"measurement": "P. vulgaris growth grade, 13 day", "setting": "[5]; 1.25% weight/volume", "result": "2 (52 to 100 colonies counted (thus 520 to 1000 CFU/mL))"},
      {"measurement": "P. vulgaris growth grade, 30 day", "setting": "[5]; 1.25% weight/volume", "result": 0},
      {"measurement": "P. vulgaris growth grade, 3 day", "setting": "[5]; 2.5% weight/volume", "result": "4 (1000 to 10,000 colonies countable (thus 10,000 CFU/mL to 100,000 CFU/mL))"},
      {"measurement": "P. vulgaris growth grade, 13 day", "setting": "[5]; 2.5% weight/volume", "result": "1 (0 to 51 colonies counted (thus 10 to 510 CFU/mL based on 0.1-mL sample))"},
      {"measurement": "P. vulgaris growth grade, 30 day", "setting": "[5]; 2.5% weight/volume", "result": 0},
      {"measurement": "P. vulgaris growth grade, 3 day", "setting": "[5]; 5.0% weight/volume", "result": 0},
      {"measurement": "P. vulgaris growth grade, 13 day", "setting": "[5]; 5.0% weight/volume", "result": 0},
      {"measurement": "P. vulgaris growth grade, 30 day", "setting": "[5]; 5.0% weight/volume", "result": 0}
    ]}
  ]
}
